Test results from ChEMBL document CHEMBL2413072, “Synthesis and in vitro anticancer studies of novel C-2 arylidene congeners of lantadenes” (2013).

Assays:
Type in all cases: functional
U-251 [1] = assay: Growth inhibition of human U251 cells assessed as cell growth at 10^-6 M by sulforhodamine B assay; conditions: read-out: Activity
MDA-MB-468 = assay: Growth inhibition of human MDA-MB-468 cells assessed as cell growth at 10^-7 M by sulforhodamine B assay; conditions: read-out: Activity
MCF7 [2] = assay: Growth inhibition of human MCF7 cells assessed as cell growth at 10^-6 M by sulforhodamine B assay; conditions: read-out: Activity
HOP-92 = assay: Growth inhibition of human HOP92 cells assessed as cell growth at 10^-8 M by sulforhodamine B assay; conditions: read-out: Activity
RPMI-8226 = assay: Growth inhibition of human RPMI8226 cells assessed as cell growth at 10^-7 M by sulforhodamine B assay; conditions: read-out: Activity
NCI-H226 [3] = assay: Growth inhibition of human NCI-H226 cells assessed as cell growth at 10^-8 M by sulforhodamine B assay; conditions: read-out: Activity
PC-3 [4] = assay: Growth inhibition of human PC3 cells by sulforhodamine B assay
UACC-62 [5] = assay: Growth inhibition of human UACC62 cells by sulforhodamine B assay
U-251 [6] = assay: Growth inhibition of human U251 cells assessed as cell growth at 10^-4 M by sulforhodamine B assay; conditions: read-out: Activity
[7] = Growth inhibition of human NCI-ADR-RES cells assessed as cell growth at 10^-7 M by sulforhodamine B assay; conditions: read-out: Activity
ACHN = assay: Growth inhibition of human ACHN cells assessed as cell growth at 10^-4 M by sulforhodamine B assay; conditions: read-out: Activity
SN12C [8] = assay: Growth inhibition of human SN12C cells assessed as cell growth at 10^-8 M by sulforhodamine B assay; conditions: read-out: Activity
SN12C [9] = assay: Growth inhibition of human SN12C cells assessed as cell growth at 10^-6 M by sulforhodamine B assay; conditions: read-out: Activity
IGROV-1 = assay: Growth inhibition of human IGROV1 cells assessed as cell growth at 10^-8 M by sulforhodamine B assay; conditions: read-out: Activity
UACC-62 [10] = assay: Growth inhibition of human UACC62 cells assessed as cell growth at 10^-6 M by sulforhodamine B assay; conditions: read-out: Activity
NCI-H226 [11] = assay: Growth inhibition of human NCI-H226 cells assessed as cell growth at 10^-4 M by sulforhodamine B assay; conditions: read-out: Activity
SK-MEL-28 = assay: Growth inhibition of human SK-MEL-28 cells assessed as cell growth at 10^-8 M by sulforhodamine B assay; conditions: read-out: Activity
MOLT-4 = assay: Growth inhibition of human MOLT4 cells by sulforhodamine B assay
SF-268 [12] = assay: Growth inhibition of human SF268 cells assessed as cell growth at 10^-6 M by sulforhodamine B assay; conditions: read-out: Activity
LOX IMVI = assay: Growth inhibition of human LOXIMVI cells by sulforhodamine B assay
MCF7 [13] = assay: Growth inhibition of human MCF7 cells assessed as cell growth at 10^-8 M by sulforhodamine B assay; conditions: read-out: Activity
MDA-MB-231 = assay: Growth inhibition of human MDA-MB-231 cells assessed as cell growth at 10^-6 M by sulforhodamine B assay; conditions: read-out: Activity
NCI-H522 [14] = assay: Growth inhibition of human NCI-H522 cells assessed as cell growth at 10^-6 M by sulforhodamine B assay; conditions: read-out: Activity
OVCAR-8 = assay: Growth inhibition of human OVCAR8 cells assessed as cell growth at 10^-7 M by sulforhodamine B assay; conditions: read-out: Activity
T47D = assay: Growth inhibition of human T47D cells assessed as cell growth at 10^-7 M by sulforhodamine B assay; conditions: read-out: Activity
M14 = assay: Growth inhibition of human M14 cells assessed as cell growth at 10^-7 M by sulforhodamine B assay; conditions: read-out: Activity
SK-MEL-5 = assay: Growth inhibition of human SK-MEL-5 cells by sulforhodamine B assay
UO-31 = assay: Growth inhibition of human UO31 cells by sulforhodamine B assay
[15] = Growth inhibition of human NCI-ADR-RES cells assessed as cell growth at 10^-8 M by sulforhodamine B assay; conditions: read-out: Activity
SF-268 [16] = assay: Growth inhibition of human SF268 cells assessed as cell growth at 10^-4 M by sulforhodamine B assay; conditions: read-out: Activity
NCI-H522 [17] = assay: Growth inhibition of human NCI-H522 cells by sulforhodamine B assay
SF-295 = assay: Growth inhibition of human SF295 cells by sulforhodamine B assay
CAKI-1 = assay: Growth inhibition of human CAKI-1 cells assessed as cell growth at 10^-6 M by sulforhodamine B assay; conditions: read-out: Activity
SNB-75 = assay: Growth inhibition of human SNB75 cells assessed as cell growth at 10^-7 M by sulforhodamine B assay; conditions: read-out: Activity
NCI-H460 = assay: Growth inhibition of human NCI-H460 cells by sulforhodamine B assay
NCI-H23 = assay: Growth inhibition of human NCI-H23 cells by sulforhodamine B assay
TK-10 = assay: Growth inhibition of human TK10 cells assessed as cell growth at 10^-6 M by sulforhodamine B assay; conditions: read-out: Activity
PC-3 [18] = assay: Growth inhibition of human PC3 cells assessed as cell growth at 10^-4 M by sulforhodamine B assay; conditions: read-out: Activity
[19] = read-out: LC50 (the source's name)
[20] = read-out: pLC50 (the source's name) (converted)

Work on C/C=C(/C)C(=O)O[C@@H]1CC(C)(C)C[C@H]2C3=CC[C@@H]4[C@@]5(C)CC[C@H](O)C(C)(C)[C@@H]5CC[C@@]4(C)[C@]3(C)CC[C@@]12C(=O)O [Reduced Lantadene A] yielded a growth at 1 µM (U-251 [1]) of 83%, a growth at 0.1 µM (MDA-MB-468) of 86% and a growth at 1 µM (MCF7 [2]) of 88%. It also gave a growth at 0.01 µM (HOP-92) of 91%, a growth at 0.1 µM (RPMI-8226) of 92% and a growth at 0.01 µM (NCI-H226 [3]) of 91%. The GI50 (PC-3 [4]; read-out: GI50) was 1.34 µM, the CC50 (PC-3 [4]; [19]) was 6.01 µM and the TGI (PC-3 [4]; read-out: TGI) was 2.84 µM. It also gave a GI50 (PC-3 [4]; read-out: pGI50 (converted)) of 1.35 µM, a CC50 (PC-3 [4]; [20]) of 6.03 µM and a TGI (PC-3 [4]; read-out: pTGI (converted)) of 2.82 µM. For the same molecule, the GI50 (UACC-62 [5]; read-out: GI50) was 1.56 µM, the CC50 (UACC-62 [5]; [19]) was 7.83 µM and the TGI (UACC-62 [5]; read-out: TGI) was 3.5 µM. The GI50 (UACC-62 [5]; read-out: pGI50 (converted)) was 1.55 µM, the CC50 (UACC-62 [5]; [20]) was 7.76 µM and the TGI (UACC-62 [5]; read-out: pTGI (converted)) was 3.47 µM. For the same molecule, the growth at 100 µM (U-251 [6]) was -52%, the growth at 0.1 µM [7] was 105% and the growth at 100 µM (ACHN) was -69%. The growth at 0.01 µM (SN12C [8]) was 96%, the growth at 1 µM (SN12C [9]) was 83% and the growth at 0.01 µM (IGROV-1) was 109%. For the same molecule, the growth at 1 µM (UACC-62 [10]) was 78%, the growth at 100 µM (NCI-H226 [11]) was -73% and the growth at 0.01 µM (SK-MEL-28) was 90%. The GI50 (MOLT-4; read-out: GI50) was 2.05 µM, the CC50 (MOLT-4; [19]) was > 100 µM and the TGI (MOLT-4; read-out: TGI) was 5.14 µM. For the same molecule, the GI50 (MOLT-4; read-out: pGI50 (converted)) was 2.04 µM, the CC50 (MOLT-4; [20]) was > 100 µM and the TGI (MOLT-4; read-out: pTGI (converted)) was 5.13 µM. It also gave a growth at 1 µM (SF-268 [12]) of 104%, a GI50 (LOX IMVI; read-out: GI50) of 3.39 µM and a CC50 (LOX IMVI; [19]) of 66.8 µM. The TGI (LOX IMVI; read-out: TGI) was 13 µM, the GI50 (LOX IMVI; read-out: pGI50 (converted)) was 3.39 µM and the CC50 (LOX IMVI; [20]) was 66.1 µM. It also gave a TGI (LOX IMVI; read-out: pTGI (converted)) of 12.9 µM, a growth at 0.01 µM (MCF7 [13]) of 95% and a growth at 1 µM (MDA-MB-231) of 89%. For the same molecule, the growth at 1 µM (NCI-H522 [14]) was 93%, the growth at 0.1 µM (OVCAR-8) was 99% and the growth at 0.1 µM (T47D) was 104%. It also gave a growth at 0.1 µM (M14) of 92%, a GI50 (SK-MEL-5; read-out: GI50) of 1.8 µM and a CC50 (SK-MEL-5; [19]) of 17.2 µM. For the same molecule, the TGI (SK-MEL-5; read-out: TGI) was 4.39 µM, the GI50 (SK-MEL-5; read-out: pGI50 (converted)) was 1.78 µM and the CC50 (SK-MEL-5; [20]) was 17.4 µM. It also gave a TGI (SK-MEL-5; read-out: pTGI (converted)) of 4.37 µM, a GI50 (UO-31; read-out: GI50) of 1.64 µM and a CC50 (UO-31; [19]) of 5.91 µM. It also gave a TGI (UO-31; read-out: TGI) of 3.12 µM, a GI50 (UO-31; read-out: pGI50 (converted)) of 1.66 µM and a CC50 (UO-31; [20]) of 5.89 µM. It also gave a TGI (UO-31; read-out: pTGI (converted)) of 3.09 µM, a growth at 0.01 µM [15] of 102% and a growth at 100 µM (SF-268 [16]) of -34%. For the same molecule, the GI50 (NCI-H522 [17]; read-out: GI50) was 2.18 µM, the CC50 (NCI-H522 [17]; [19]) was 32.4 µM and the TGI (NCI-H522 [17]; read-out: TGI) was 5.42 µM. The GI50 (NCI-H522 [17]; read-out: pGI50 (converted)) was 2.19 µM, the CC50 (NCI-H522 [17]; [20]) was 32.4 µM and the TGI (NCI-H522 [17]; read-out: pTGI (converted)) was 5.37 µM. The GI50 (SF-295; read-out: GI50) was 1.62 µM, the CC50 (SF-295; [19]) was 7.74 µM and the TGI (SF-295; read-out: TGI) was 3.54 µM. For the same molecule, the GI50 (SF-295; read-out: pGI50 (converted)) was 1.62 µM, the CC50 (SF-295; [20]) was 7.76 µM and the TGI (SF-295; read-out: pTGI (converted)) was 3.55 µM. For the same molecule, the growth at 1 µM (CAKI-1) was 85%, the growth at 0.1 µM (SNB-75) was 78% and the GI50 (NCI-H460; read-out: GI50) was 2.84 µM. The LC50 (NCI-H460; read-out: LC50) was > 100 µM, the TGI (NCI-H460; read-out: TGI) was 11.7 µM and the GI50 (NCI-H460; read-out: pGI50 (converted)) was 2.82 µM. For the same molecule, the LC50 (NCI-H460; read-out: pLC50 (converted)) was > 100 µM, the TGI (NCI-H460; read-out: pTGI (converted)) was 11.7 µM and the GI50 (NCI-H23; read-out: GI50) was 2.39 µM. For the same molecule, the CC50 (NCI-H23; [19]) was 91.2 µM, the TGI (NCI-H23; read-out: TGI) was 5.93 µM and the GI50 (NCI-H23; read-out: pGI50 (converted)) was 2.4 µM. It also gave a CC50 (NCI-H23; [20]) of 91.2 µM, a TGI (NCI-H23; read-out: pTGI (converted)) of 5.89 µM and a growth at 1 µM (TK-10) of 106%. The growth at 100 µM (PC-3 [18]) was -73%.
